Calls of active or inactive are those of the source.
Key:
[1] = target: FAD-linked sulfhydryl oxidase ALR (Homo sapiens, UniProt P55789); test: ALR-catalysed DTT oxidation blockers – biochemical, H2O2 detection, luminescence, cherry-pick, dose response (AID 493248)
[2] = target: Dual specificity tyrosine-phosphorylation-regulated kinase 1A (Rattus norvegicus, UniProt Q63470); format: biochemical, Homo sapiens
[3] = Luminescence Cell-Based Dose Response HTS to Identify Activators of Luciferase Translation or Activity in H4 […] Cells. [Related pubchem assays: 1829 (Project Summary), 1814 (Primary HTS)]; format: functional
H4 = test: Luminescence Cell-Based Dose Response HTS to Identify Activators of 5'UTR Stem-Loop Driven Prion Protein mRNA Translation in H4 Neuroglioblastoma Cells. [Related pubchem assays: 1829 (Project Summary), 1814 (Primary HTS)]; format: functional; conditions: Homo sapiens
cells = format: functional, cell-based; conditions: HEK-CNG
Galanin receptor type 3 = target: T1, Galanin receptor type 3 (Homo sapiens, UniProt O60755); test: Fluorescence-based cell-based primary high throughput dose response assay to identify antagonists of the Galanin Receptor 3 (GalR3).; format: functional
T1 sequence (O60755 whole entry): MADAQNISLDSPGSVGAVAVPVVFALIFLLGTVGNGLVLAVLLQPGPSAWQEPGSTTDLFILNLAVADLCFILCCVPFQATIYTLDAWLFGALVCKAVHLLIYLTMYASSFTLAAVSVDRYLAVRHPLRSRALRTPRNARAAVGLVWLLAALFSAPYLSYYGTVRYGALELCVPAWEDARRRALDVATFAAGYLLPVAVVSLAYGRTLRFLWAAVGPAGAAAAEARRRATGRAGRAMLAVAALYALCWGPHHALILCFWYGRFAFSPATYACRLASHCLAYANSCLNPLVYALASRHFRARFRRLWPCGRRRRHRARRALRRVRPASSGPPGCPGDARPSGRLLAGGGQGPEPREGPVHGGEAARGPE

[4] = target: T2, Short transient receptor potential channel 4 (Mus musculus, UniProt Q9QUQ5); test: calcium entry via TRPC4 opening agents – cell-based, HEK293 TRPC4/mu-opioid, Fluo-4 calcium, dose response (AID 434937); format: functional
T2 sequence (Q9QUQ5 whole entry): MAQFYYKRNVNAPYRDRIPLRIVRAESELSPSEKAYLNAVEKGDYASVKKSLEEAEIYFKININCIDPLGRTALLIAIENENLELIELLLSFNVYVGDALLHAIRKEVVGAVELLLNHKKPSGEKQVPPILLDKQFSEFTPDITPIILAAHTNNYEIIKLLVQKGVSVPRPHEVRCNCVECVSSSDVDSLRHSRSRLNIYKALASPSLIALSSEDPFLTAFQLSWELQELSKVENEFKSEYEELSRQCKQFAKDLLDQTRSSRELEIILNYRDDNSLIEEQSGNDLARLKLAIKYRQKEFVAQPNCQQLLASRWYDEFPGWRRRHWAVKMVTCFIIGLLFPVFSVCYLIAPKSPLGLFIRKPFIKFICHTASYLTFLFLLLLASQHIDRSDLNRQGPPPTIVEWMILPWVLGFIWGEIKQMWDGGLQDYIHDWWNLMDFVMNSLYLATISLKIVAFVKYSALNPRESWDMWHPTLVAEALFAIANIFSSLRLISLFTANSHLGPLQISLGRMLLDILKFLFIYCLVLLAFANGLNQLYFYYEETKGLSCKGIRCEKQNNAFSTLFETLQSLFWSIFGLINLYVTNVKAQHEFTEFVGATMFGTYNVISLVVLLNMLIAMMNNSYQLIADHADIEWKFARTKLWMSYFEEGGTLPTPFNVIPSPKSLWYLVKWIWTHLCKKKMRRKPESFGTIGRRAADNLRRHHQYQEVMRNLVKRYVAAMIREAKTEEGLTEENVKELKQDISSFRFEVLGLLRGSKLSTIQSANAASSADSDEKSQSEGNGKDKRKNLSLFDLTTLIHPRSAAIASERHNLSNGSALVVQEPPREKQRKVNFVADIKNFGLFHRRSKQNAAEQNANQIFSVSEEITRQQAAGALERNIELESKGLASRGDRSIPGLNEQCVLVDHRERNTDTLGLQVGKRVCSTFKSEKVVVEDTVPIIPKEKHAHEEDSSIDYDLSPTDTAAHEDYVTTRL

[5] = target: T3, Type-1 angiotensin II receptor (Homo sapiens, UniProt P30556); test: antagonism of angiotensin II type 1 receptor – cell-based, uHTS hits, selectivity assay for APJ receptor antagonist project, dose response (AID 463214); format: functional;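 further: antagonist potency against angiotensin II stimulated AT1 response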
T3 sequence (P30556 whole entry): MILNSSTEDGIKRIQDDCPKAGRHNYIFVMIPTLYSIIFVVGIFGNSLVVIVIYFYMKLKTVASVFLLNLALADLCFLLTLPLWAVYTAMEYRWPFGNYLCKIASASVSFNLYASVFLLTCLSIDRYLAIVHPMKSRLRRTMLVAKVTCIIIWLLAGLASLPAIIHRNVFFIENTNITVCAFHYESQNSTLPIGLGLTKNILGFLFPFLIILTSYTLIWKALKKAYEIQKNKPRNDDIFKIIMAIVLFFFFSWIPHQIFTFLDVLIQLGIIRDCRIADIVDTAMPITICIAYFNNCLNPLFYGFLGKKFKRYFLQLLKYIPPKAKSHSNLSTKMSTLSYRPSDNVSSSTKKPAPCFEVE

[6] = target: Glucose-6-phosphate 1-dehydrogenase (Homo sapiens, UniProt P11413); test: inhibition of Homo sapiens G6PD, dose series – biochemical, fluorescence, selectivity assay for P. falciparum G6PD inhibitor project, dose response (AID 504792); format: functional
Chain of Glucose-6-phosphate 1-dehydrogenase (P11413 whole entry): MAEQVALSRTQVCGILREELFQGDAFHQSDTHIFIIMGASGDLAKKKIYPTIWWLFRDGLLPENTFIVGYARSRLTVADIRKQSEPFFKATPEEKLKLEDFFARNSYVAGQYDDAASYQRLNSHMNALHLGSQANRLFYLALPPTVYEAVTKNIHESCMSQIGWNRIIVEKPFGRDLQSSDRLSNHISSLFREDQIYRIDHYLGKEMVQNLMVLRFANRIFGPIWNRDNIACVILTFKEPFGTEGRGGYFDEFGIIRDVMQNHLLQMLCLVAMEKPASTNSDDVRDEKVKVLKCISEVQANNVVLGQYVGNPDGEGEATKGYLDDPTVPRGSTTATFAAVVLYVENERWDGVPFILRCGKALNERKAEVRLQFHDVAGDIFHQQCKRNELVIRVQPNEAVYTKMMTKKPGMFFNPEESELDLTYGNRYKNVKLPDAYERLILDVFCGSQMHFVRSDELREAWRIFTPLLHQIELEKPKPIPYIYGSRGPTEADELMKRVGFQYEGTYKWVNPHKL

Beta-galactosidase = Beta-galactosidase (Escherichia coli, UniProt Q8VNN2); test: PubChem AID 485352; format: functional
Chain of Beta-galactosidase (Q8VNN2 whole entry): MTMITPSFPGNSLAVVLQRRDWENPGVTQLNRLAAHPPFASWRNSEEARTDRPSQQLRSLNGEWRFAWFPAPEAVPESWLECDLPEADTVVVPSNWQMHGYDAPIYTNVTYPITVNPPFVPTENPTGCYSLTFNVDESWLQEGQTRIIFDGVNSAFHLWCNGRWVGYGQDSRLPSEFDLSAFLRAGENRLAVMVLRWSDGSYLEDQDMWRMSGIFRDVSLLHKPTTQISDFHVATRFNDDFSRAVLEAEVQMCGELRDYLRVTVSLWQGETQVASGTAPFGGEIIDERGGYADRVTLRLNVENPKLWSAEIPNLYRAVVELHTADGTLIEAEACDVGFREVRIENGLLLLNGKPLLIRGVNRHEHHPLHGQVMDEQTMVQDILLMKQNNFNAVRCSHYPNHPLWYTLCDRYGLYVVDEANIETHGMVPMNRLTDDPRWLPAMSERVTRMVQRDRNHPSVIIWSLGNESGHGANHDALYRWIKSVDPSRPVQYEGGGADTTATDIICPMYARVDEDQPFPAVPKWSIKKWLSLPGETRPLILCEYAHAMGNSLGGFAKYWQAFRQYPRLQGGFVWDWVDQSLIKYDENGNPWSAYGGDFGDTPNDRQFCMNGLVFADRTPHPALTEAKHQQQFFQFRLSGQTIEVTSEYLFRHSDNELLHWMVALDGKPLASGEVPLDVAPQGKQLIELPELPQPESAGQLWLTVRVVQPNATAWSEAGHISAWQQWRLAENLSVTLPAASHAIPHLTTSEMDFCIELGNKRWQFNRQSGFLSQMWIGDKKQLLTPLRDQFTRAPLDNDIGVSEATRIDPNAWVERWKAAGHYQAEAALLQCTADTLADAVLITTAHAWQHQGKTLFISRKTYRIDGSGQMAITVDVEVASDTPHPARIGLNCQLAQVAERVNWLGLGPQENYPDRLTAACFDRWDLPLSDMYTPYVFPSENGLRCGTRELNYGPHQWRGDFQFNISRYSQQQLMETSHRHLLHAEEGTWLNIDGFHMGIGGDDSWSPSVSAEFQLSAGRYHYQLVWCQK

[7] = OVCAR8 cell viability loss – plate reader, dry powder samples, PAX8 project, dose response (AID 743197); format: functional, cell-based; conditions: OVCAR-8
[8] = IGROV1 cell killing – plate reader, dry powder samples, PAX8 inhibitor project, dose response (AID 743043); format: functional, cell-based; conditions: IGROV-1
Paired box protein Pax-8 = Paired box protein Pax-8 (Homo sapiens, UniProt Q06710); test: PAX8 transcriptional activity inhibition in RMG-I – RMG-I cells, luciferase, cherry-pick, dose response (AID 687027); format: functional, cell-based;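 further: luciferase reporter driven by Pax8 target thyroperoxidase promoter measured by SteadyGlo luminescence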
Chain of Paired box protein Pax-8 (Q06710 whole entry): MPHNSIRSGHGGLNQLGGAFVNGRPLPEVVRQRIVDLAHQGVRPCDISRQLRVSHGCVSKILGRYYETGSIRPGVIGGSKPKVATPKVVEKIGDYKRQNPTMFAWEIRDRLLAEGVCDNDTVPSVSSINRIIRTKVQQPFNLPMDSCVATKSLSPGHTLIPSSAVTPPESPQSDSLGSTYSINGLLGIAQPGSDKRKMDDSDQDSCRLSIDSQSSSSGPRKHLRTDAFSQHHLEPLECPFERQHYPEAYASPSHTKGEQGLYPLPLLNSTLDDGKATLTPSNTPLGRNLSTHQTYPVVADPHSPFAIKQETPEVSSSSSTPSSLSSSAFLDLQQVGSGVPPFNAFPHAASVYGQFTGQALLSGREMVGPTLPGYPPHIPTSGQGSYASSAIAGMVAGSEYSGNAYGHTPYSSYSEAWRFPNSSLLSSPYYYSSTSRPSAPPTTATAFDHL

Melanocortin receptor 4 = Melanocortin receptor 4 (Homo sapiens, UniProt P32245); format: functional, cell-based;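 further: Cell-based assay with luminescence read-out, confirmatory dose-response testing for agonist activity of biased ligands at MC4R; human U2OS cells with tagged receptor and beta-arrestin; potency of agonists that increase receptor coupling to beta-arrestin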
Chain of Melanocortin receptor 4 (P32245 whole entry): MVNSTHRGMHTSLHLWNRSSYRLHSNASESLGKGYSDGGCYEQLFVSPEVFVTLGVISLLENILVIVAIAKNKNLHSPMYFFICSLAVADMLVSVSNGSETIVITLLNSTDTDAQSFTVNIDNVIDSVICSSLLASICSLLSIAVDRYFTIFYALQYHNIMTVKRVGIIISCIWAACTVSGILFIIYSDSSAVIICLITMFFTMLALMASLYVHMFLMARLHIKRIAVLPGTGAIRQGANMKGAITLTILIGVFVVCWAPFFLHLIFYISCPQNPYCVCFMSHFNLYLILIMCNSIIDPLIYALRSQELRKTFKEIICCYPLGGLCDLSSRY

[9] = target: T4, Small ubiquitin-related modifier 1 (Homo sapiens, UniProt P63165); test: SUMO1 protein-protein binding blockers, potency – biochemical, FRET, dose response (AID 624383); format: functional; conditions: read-out: IC50_Mean
T4 sequence (P63165 whole entry): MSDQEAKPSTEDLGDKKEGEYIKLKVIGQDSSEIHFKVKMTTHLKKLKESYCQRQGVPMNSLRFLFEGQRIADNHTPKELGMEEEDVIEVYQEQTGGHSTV

[10] = target: T4, Small ubiquitin-related modifier 1; test: SUMO1 protein interaction blockers, potency – biochemical, fluorescence polarization, uHTS hits, dose response (AID 624382); format: functional; conditions: read-out: IC50_Mean
H9c2 = test: cells; format: functional, cell-based; conditions: Rattus norvegicus, H9c2, Myocardium;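 further: confirmatory concentration-response retest of ultra-high-throughput screening hits for modulation of myocardial damage; cell death induced by hydrogen peroxide oxidative stress; compound pretreatment for 60 min then peroxide exposure for 2 h; potency is for protecting the cells against peroxide damage rather than for killing them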
[11] = OVCAR-3 cell viability loss – plate reader, dry powder samples, PAX8 inhibitor project, dose response (AID 743044); format: functional, cell-based
[12] = target: T5, Tyrosine-protein phosphatase non-receptor type 5 (Homo sapiens, UniProt P54829); test: PTPN5 enzyme inhibition – biochemical, fluorescence intensity, uHTS hits, confirmation (AID 602372); format: functional; conditions: read-out: IC50_Mean
T5 sequence (P54829 whole entry): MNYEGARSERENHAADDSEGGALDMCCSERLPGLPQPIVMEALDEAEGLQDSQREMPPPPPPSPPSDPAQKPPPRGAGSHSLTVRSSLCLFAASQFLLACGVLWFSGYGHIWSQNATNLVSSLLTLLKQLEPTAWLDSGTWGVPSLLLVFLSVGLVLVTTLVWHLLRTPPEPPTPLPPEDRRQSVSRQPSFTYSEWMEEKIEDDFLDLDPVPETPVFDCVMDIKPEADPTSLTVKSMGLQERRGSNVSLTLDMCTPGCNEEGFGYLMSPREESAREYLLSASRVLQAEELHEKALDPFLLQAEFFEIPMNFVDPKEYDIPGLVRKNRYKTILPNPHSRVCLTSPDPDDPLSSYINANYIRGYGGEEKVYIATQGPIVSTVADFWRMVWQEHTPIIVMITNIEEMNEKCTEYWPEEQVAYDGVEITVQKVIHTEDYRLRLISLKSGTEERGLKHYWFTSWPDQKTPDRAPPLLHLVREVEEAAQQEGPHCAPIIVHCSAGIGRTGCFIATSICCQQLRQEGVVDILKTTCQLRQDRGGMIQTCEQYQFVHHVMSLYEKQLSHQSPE

[13] = target: Dual specificity protein phosphatase 3 (Homo sapiens, UniProt P51452); test: VHR phosphatase inhibition, dose response, selectivity assay for STEP inhibitor project, biochemical (AID 602374); format: functional; conditions: read-out: IC50_Mean
Chain of Dual specificity protein phosphatase 3 (P51452 whole entry): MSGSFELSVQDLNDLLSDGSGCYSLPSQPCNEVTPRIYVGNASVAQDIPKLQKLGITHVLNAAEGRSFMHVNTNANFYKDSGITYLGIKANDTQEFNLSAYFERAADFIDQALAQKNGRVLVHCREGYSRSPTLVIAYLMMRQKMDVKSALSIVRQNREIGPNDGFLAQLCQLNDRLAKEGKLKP

[14] = target: T6, Tyrosine-protein phosphatase non-receptor type 11 (Homo sapiens, UniProt Q06124); test: PTPN11 enzyme inhibitors – biochemical, selectivity assay for STEP inhibitor project, dose response (AID 602367); format: functional; conditions: read-out: IC50_Mean
T6 sequence (Q06124 whole entry): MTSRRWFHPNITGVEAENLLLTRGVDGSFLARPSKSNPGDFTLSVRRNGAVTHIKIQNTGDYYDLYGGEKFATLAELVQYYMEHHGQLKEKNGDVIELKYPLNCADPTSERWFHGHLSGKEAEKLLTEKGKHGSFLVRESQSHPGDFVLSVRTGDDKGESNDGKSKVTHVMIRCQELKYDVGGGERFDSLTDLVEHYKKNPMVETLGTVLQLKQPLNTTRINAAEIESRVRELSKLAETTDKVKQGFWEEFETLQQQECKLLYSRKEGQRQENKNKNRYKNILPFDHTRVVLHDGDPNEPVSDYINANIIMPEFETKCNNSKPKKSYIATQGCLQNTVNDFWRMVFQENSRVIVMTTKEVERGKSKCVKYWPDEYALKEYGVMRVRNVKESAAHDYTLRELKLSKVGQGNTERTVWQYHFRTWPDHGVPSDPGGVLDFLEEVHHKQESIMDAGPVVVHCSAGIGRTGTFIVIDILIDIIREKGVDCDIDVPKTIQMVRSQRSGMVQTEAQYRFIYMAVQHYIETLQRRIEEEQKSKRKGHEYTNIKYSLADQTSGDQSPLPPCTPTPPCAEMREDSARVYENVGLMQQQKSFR

Chain of FAD-linked sulfhydryl oxidase ALR (P55789 whole entry): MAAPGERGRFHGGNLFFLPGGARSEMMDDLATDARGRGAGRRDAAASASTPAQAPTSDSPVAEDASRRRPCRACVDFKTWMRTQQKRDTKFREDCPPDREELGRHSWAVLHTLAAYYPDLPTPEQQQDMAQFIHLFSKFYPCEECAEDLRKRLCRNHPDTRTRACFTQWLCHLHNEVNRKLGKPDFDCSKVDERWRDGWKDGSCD

With `CN(C)/C=N/c1nc(-c2ccc3c(c2)OCO3)cs1` the AC50 [1] was 10.9 µM (active) and the AC50 [2] was 3.64 µM (active).
With `O=C(Nc1nc2ccc([N+](=O)[O-])cc2s1)C1CCCO1` (stereo not drawn) the EC50 [3] was 0.224 µM (active), the AC50 [2] was 0.577 µM (active) and the EC50 (H4) was > 120 µM (not active).
With `Cc1cc(NC(=O)Cc2ccccc2)c2ccccc2n1` the EC50 (cells) was > 29.9 µM (inactive) and the IC50 (Galanin receptor type 3) was 1.3 µM (active).
In the case of `COc1ccccc1CC(=O)N1CCN(CCc2ccccc2)CC1`, the EC50 [4] is reported as 4.22 µM (active).
With `Cc1ccc(Cl)cc1N1CCN(CCN)CC1` the EC50 [4] was 0.211 µM (active).
With `CCOC(=O)c1c(C2COc3ccccc3O2)csc1NC(=O)c1ccco1` (stereo not drawn) the IC50 [5] was > 40 µM (not active), the IC50 [6] was > 80 µM (inactive) and the EC50 (Beta-galactosidase) was > 40 µM (inactive).
In the case of `Cc1ccc(S(=O)(=O)N2CC[C@@H]3[C@H](CO)N(C)c4ccc(-c5ccc(C#N)cc5)cc4[C@@H]32)cc1`, the AC50 [7] is reported as 48.4 µM (active), the AC50 [8] is reported as 28.6 µM (active) and the AC50 (Paired box protein Pax-8) is reported as 7.55 µM (active).
For `COc1cccc(NC(=S)N/N=C2\CC3CCC2(C)C3(C)C)c1` (stereo not drawn), the IC50 [5] was 27.4 µM (not active) and the EC50 (Beta-galactosidase) was > 40 µM (inactive).
With `CCc1ccc(C(=O)NNc2ccc(C)c(Cl)c2)cc1` the IC50 [5] was 2.55 µM (active) and the EC50 (Beta-galactosidase) was > 40 µM (inactive).
In the case of `CCc1ccc(C2CC(c3ccc(F)cc3)Nc3nc(N)nn32)cc1` (stereo not drawn), the EC50 (Melanocortin receptor 4) is reported as 48.1 µM (inactive).
For `COc1ccc2c(Cl)c(C(=O)NCc3ccco3)sc2c1`, the AC50 [2] was 0.273 µM (active).
In the case of `O=C(O)C1=CCC=CC1C(=O)O` (stereo not drawn), the IC50 [9] is reported as 5.69 µM (active) and the IC50 [10] is reported as > 66.6 µM (inactive).
With `CC(=O)Nc1cc(-c2ccccc2)cn2c(-c3cccc(C(C)=O)c3)cnc12` the EC50 (Melanocortin receptor 4) was > 89.2 µM (inactive) and the IC50 (H9c2) was > 79 µM (inactive).
With `C[C@@H]1CCCCO[C@@H](CN(C)Cc2ccc(C(F)(F)F)cc2)[C@@H](C)CN([C@@H](C)CO)C(=O)c2cc(NS(=O)(=O)c3ccc(Cl)cc3)ccc2O1` the AC50 [7] was 43.7 µM (active), the AC50 [8] was 53.5 µM (active) and the AC50 (Paired box protein Pax-8) was 7.31 µM (active). The AC50 [11] was 27.4 µM (active).
In the case of `CCOC(=O)N1CCC(N(CCN(C)C)C(=S)Nc2cc(Cl)ccc2C)CC1`, the IC50 [12] is reported as 32.2 µM (inactive), the IC50 [13] is reported as 2.14 µM (active) and the IC50 [14] is reported as 11.8 µM (active).
In the case of `CC(=O)Nc1cc(-c2ccc(S(C)(=O)=O)cc2)cn2c(-c3ccc(F)c(Cl)c3)cnc12`, the EC50 (Melanocortin receptor 4) is reported as > 89.2 µM (inactive).
In the case of `CCCCN(CC)CCCNC(=O)Cn1nc(Cc2cccnc2)c2ccccc2c1=O`, the EC50 [4] is reported as 1.88 µM (active).
For `COc1ccc(CSCCN)cc1Cl`, the EC50 [4] was 5.96 µM (active).
With `Cc1ccc(S(=O)(=O)N2[C@@H](c3ccc(C(C)(C)C)cc3)C(C(=O)O)=CC[C@H]2c2ccc(Cl)c(Cl)c2)cc1` the IC50 [9] was 18.8 µM (active) and the IC50 [10] was > 66.6 µM (inactive).
In the case of `COc1ccc(C2NCCc3[nH]cnc32)cc1` (stereo not drawn), the EC50 [4] is reported as 3.35 µM (active).

Reference: ChEMBL document CHEMBL1201862, “PubChem BioAssay data set” (2004)
